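Step 1: Grow cells in 96-well plates. Step 2: Expose to compound for 48 hours at 5 concentrations. Step 3: Interpolate endpoints linearly; if unreached, use highest concentration. Here, GI50 denotes the concentration required for 50% inhibition of growth. TGI denotes the concentration required for complete inhibition of growth.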
Assays:
Experiment in all cases: NCI tumour cell line growth inhibition, 48 h
KM12 colon = tested on: KM12 colon
PC-3 prostate = tested on: PC-3 prostate
MDA-MB-435 = tested on: MDA-MB-435
SN12C renal = tested on: SN12C renal
NCI-H460 lung = tested on: NCI-H460 lung
NCI/ADR-RES ovarian = tested on: NCI/ADR-RES ovarian
OVCAR-3 ovarian = tested on: OVCAR-3 ovarian
SK-MEL-2 melanoma = tested on: SK-MEL-2 melanoma
SF-295 CNS = tested on: SF-295 CNS
UO-31 renal = tested on: UO-31 renal
MOLT-4 leukemia = tested on: MOLT-4 leukemia
SW-620 colon = tested on: SW-620 colon
IGROV1 ovarian = tested on: IGROV1 ovarian
OVCAR-5 ovarian = tested on: OVCAR-5 ovarian
EKVX NSCLC = tested on: EKVX NSCLC
U251 CNS = tested on: U251 CNS
OVCAR-4 ovarian = tested on: OVCAR-4 ovarian
HT29 colon = tested on: HT29 colon
OVCAR-8 ovarian = tested on: OVCAR-8 ovarian
RPMI-8226 leukemia = tested on: RPMI-8226 leukemia
MCF7 breast = tested on: MCF7 breast
HOP-62 NSCLC = tested on: HOP-62 NSCLC
T-47D breast = tested on: T-47D breast
NCI-H226 lung = tested on: NCI-H226 lung
TK-10 renal = tested on: TK-10 renal
MALME-3M melanoma = tested on: MALME-3M melanoma
CCRF-CEM leukemia = tested on: CCRF-CEM leukemia
UACC-257 melanoma = tested on: UACC-257 melanoma

COc1cc2nc3sc(C(=O)Nc4ccc(C(=O)OC(C)C)cc4)c(C(=O)Nc4ccc(Cl)cc4C)n3c(=O)c2cc1OC
TGI (KM12 colon): 13.3 µM | GI50 (PC-3 prostate): 18.5 µM | TGI (PC-3 prostate): > 100 µM | GI50 (MDA-MB-435): 9.11 µM | TGI (MDA-MB-435): > 100 µM | GI50 (SN12C renal): 22.8 µM | TGI (SN12C renal): 71.1 µM | GI50 (NCI-H460 lung): 3.05 µM | TGI (NCI-H460 lung): > 100 µM | GI50 (NCI/ADR-RES ovarian): 12.4 µM | TGI (NCI/ADR-RES ovarian): > 100 µM | GI50 (OVCAR-3 ovarian): 2.66 µM | TGI (OVCAR-3 ovarian): 10.6 µM | GI50 (SK-MEL-2 melanoma): > 100 µM | TGI (SK-MEL-2 melanoma): > 100 µM | GI50 (SF-295 CNS): 11.2 µM | TGI (SF-295 CNS): 29 µM | GI50 (UO-31 renal): 25.7 µM | TGI (UO-31 renal): > 100 µM | GI50 (MOLT-4 leukemia): 2.87 µM | TGI (MOLT-4 leukemia): 18.9 µM | GI50 (SW-620 colon): 1.88 µM | TGI (SW-620 colon): 25 µM | GI50 (IGROV1 ovarian): 0.69 µM | TGI (IGROV1 ovarian): 17.8 µM | GI50 (OVCAR-5 ovarian): 17.4 µM | TGI (OVCAR-5 ovarian): 50.2 µM | GI50 (EKVX NSCLC): 22.8 µM | TGI (EKVX NSCLC): > 100 µM | GI50 (U251 CNS): 5.14 µM | TGI (U251 CNS): 18.4 µM | GI50 (OVCAR-4 ovarian): 11.2 µM | TGI (OVCAR-4 ovarian): > 100 µM | GI50 (HT29 colon): 3.18 µM | TGI (HT29 colon): > 100 µM | GI50 (OVCAR-8 ovarian): 12.6 µM | TGI (OVCAR-8 ovarian): > 100 µM | GI50 (RPMI-8226 leukemia): 16 µM | TGI (RPMI-8226 leukemia): 78.6 µM | GI50 (MCF7 breast): 14.1 µM | TGI (MCF7 breast): > 100 µM | GI50 (HOP-62 NSCLC): 18.7 µM | TGI (HOP-62 NSCLC): 52.2 µM | GI50 (T-47D breast): 5.59 µM | TGI (T-47D breast): 54.6 µM | GI50 (NCI-H226 lung): 16.6 µM | TGI (NCI-H226 lung): 43.4 µM | GI50 (TK-10 renal): 2.45 µM | TGI (TK-10 renal): 12.7 µM | GI50 (MALME-3M melanoma): 0.0691 µM | TGI (MALME-3M melanoma): 2.44 µM | GI50 (CCRF-CEM leukemia): 4.66 µM | TGI (CCRF-CEM leukemia): 30.2 µM | GI50 (UACC-257 melanoma): 18.4 µM | TGI (UACC-257 melanoma): 93.2 µM

— PubChem BioAssay (NCI)
